In PMC10743905, “Design, Synthesis, and In Vitro and In Vivo Bioactivity Studies of Hydrazide–Hydrazones of 2,4-Dihydroxybenzoic Acid” (International Journal of Molecular Sciences, 2023):
In brackets after ≈: the same amount, converted by molar mass. Where two headings read alike, the source gives them in different places.

Key:
[1] = test system: Micrococcus luteus ATCC 10240; experiment: Broth microdilution MIC/MBC; assay type: cell-based; conditions: for MBC: ATCC10240
Summary of the method: (§1)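 Compounds in DMSO were two-fold diluted in Mueller-Hinton broth (bacteria) or RPMI 1640 with MOPS (fungi), final 1000 to 0.488 µg/ml.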

[2] = test system: Proteus mirabilis ATCC 12453; experiment: Broth microdilution MIC/MBC; assay type: cell-based; conditions: for MIC / MBC: ATCC12453
Summary of the method: as §1

[3] = test system: Pseudomonas aeruginosa ATCC 9027; experiment: Broth microdilution MIC/MBC; assay type: cell-based; conditions: for MIC / MBC: ATCC9027
Summary of the method: as §1

[4] = test system: Salmonella typhimurium ATCC 14028; experiment: Broth microdilution MIC/MBC; assay type: cell-based; conditions: for MIC / MBC: Salmonella enterica
Summary of the method: as §1

[5] = test system: Staphylococcus aureus ATCC 29213; experiment: Broth microdilution MIC/MBC; assay type: cell-based; conditions: for MBC / MIC: ATCC29213
Summary of the method: as §1

[6] = test system: Staphylococcus aureus ATCC 43300; experiment: Broth microdilution MIC/MBC; assay type: cell-based; conditions: Staphylococcus aureus ATCC 43300 (MRSA)
Summary of the method: as §1

[7] = test system: Staphylococcus epidermidis ATCC 12228; experiment: Broth microdilution MIC/MBC; assay type: cell-based; conditions: for MBC: ATCC12228
Summary of the method: as §1

[8] = test system: 769-P; experiment: MTT antiproliferative assay; assay type: cell-based, human; conditions: for IC50: Homo sapiens, 769-P, MTT, 24 h incubation, renal adenocarcinoma; for Selectivity Index: ratio IC50 HEK-293 / IC50 769-P
Description: (§2) The in vitro studies were performed on the reference line HEK-293 (human embryonic kidney cells, ATCC® CRL-1573™) and […] human cancer cell lines: 769-P (adenocarcinoma, renal cells, ATCC® CRL-1933™) and HepG2 (carcinoma, hepatocellular, ATCC® HB-8065™), H1563 (adenocarcinoma, non-smallcell lung cancer, ATCC® CRL-5875™), LN-229 (glioblastoma, ATCC® CRL-2611™). Cells from the 769-P and H1563 cell lines were cultured in RPMI-1640 growth medium (PAN Biotech GmbH, Aidenbach, Bayern, Germany), cells from the HEK-293 and HepG2 cell lines were cultured in EMEM growth medium (PAN Biotech GmbH, Aidenbach, Bayern, Germany), and cells from the LN-229 cell line were cultured in DMEM growth medium (PAN Biotech GmbH, Aidenbach, Bayern, Germany) in sterile 75 cm^2 culture phalcones. Fetal bovine serum (PAN Biotech GmbH, Aidenbach, Bayern, Germany) at 10% of growth medium and antibiotics (Sigma-Aldrich, Poland) (2.5 µg/mL amphotericin B, 100 µg/mL penicillin, and 100 µg/mL streptomycin) were added to all media. Cells were cultured at 37 °C in an incubator with 5% CO2 flow until a cell layer was formed. Following this, the medium was removed, and the cells were washed with 0.25% trypsin solution with 2.21 mM EDTA (Corning Incorporated, Corning, NY, USA) in order to completely remove fetal bovine serum containing trypsin inhibitor. Finally, 6 mL of complete growth medium was added, and the cells were aspirated by gentle pipetting.
(§3) The determination of inhibitory concentration (IC50) in the HEK-293, 769-P, HepG2, H1563, and LN-229 cell cultures for selected hydrazide–hydrazones was performed using the MTT assay procedure. This test was performed according to the MTT Assay ECVAM n°17 protocol manual prepared by the European Centre for the Validation of Alternative Methods (ECVAM), an entity that aims to reduce in vivo testing in favor of in vitro and in silico methods. To 96-well sterile plates, 100 μL of cell suspensions, prepared in the appropriate medium at a concentration of 3 × 10^5 cells/mL, was added using a multichannel pipette. To achieve cell adhesion to the bottom of the plates, cells were incubated for 24 h at 37 °C with 5% CO2 flow and 90% humidity. To determine the growth-inhibitory concentration, the solutions of the tested substances (19–24) were prepared at concentrations ranging from 1 µM to 500 µM, added individually to the wells following the rule of 8 wells per concentration, and the plates were again incubated for 24 h at 37 °C and with 5% CO2 addition. We also prepared a background control (200 μL of the respective growth medium) and negative control (100 μL of cells in the appropriate growth medium + 100 μL of the growth medium), which provided information on the amount of formazan formed in the untreated cells. After a 24 h incubation period, the solutions were extracted from the cells; 190 μL of growth medium and 10 μL of 5 mg/mL MTT solution (Invitrogen, Waltham, MA, USA) were added each and incubated for 4 h. After this time, all medium was removed, 100 μL of DMSO (Corning Incorporated, Corning, NY, USA) was added to each well, and absorbance measurements were performed at 550 nm using a Power Weave xs spectrophotometric microplate reader (BioTek, Winooski, VT, USA). The decrease in absorbance is equivalent to the decrease in MTT formazan production, which is due to the decrease in mitochondrial dehydrogenase activity and indicates a cytotoxic effect from the tested substances. Cell viability is expressed as a percentage as the ratio of the absorbance of test substance-treated cells to the untreated cells. The experiments were repeated three times.
(§4) The significance level was taken as p < 0.05.

[9] = test system: LN-229; experiment: MTT antiproliferative assay; assay type: cell-based, human; conditions: for IC50: Homo sapiens, LN-229, MTT, 24 h incubation, glioblastoma; for Selectivity Index: ratio IC50 HEK-293 / IC50 LN-229
Description: as §2, §3, §4

SMILES	MBC/MIC [1]	MBC [1]	MIC ([1]; ATCC10240, read-out: MIC)	MIC [2]	MIC [3]	MIC [4]	MBC/MIC [5]	MBC [5]	MIC [5]	MBC [6]	MBC/MIC [6]	MIC [6]	MBC/MIC [7]	MBC [7]	MIC ([7]; ATCC12228, read-out: MIC)	IC50 [8]	IC50 [9]	Selectivity Index [9]	MBC/MIC [2]	MBC [2]	other results
O=C(N/N=C/c1ccc([N+](=O)[O-])cc1)c1ccc(O)cc1O [Compound 21, 2,4-dihydroxy-N-[(4-nitrophenyl)methylidene]benzohydrazide]	> 1	> 1000 µg/mL	1000 µg/mL (≈ 3.32 mM)	> 1000 µg/mL	> 1000 µg/mL	> 1000 µg/mL	> 2	> 1000 µg/mL	500 µg/mL (≈ 1.66 mM)	> 1000 µg/mL	> 2	500 µg/mL (≈ 1.66 mM)	> 2	> 1000 µg/mL	500 µg/mL (≈ 1.66 mM)	12.4 µM	0.77 µM	–	–	–	–
O=C(N/N=C/c1ccccc1F)c1ccc(O)cc1O [Compound 24, N-[(2-fluorophenyl)methylidene]-2,4-dihydroxybenzohydrazide]	> 1	> 1000 µg/mL	1000 µg/mL (≈ 3.65 mM)	> 1000 µg/mL	> 1000 µg/mL	> 1000 µg/mL	–	–	> 1000 µg/mL	–	–	> 1000 µg/mL	–	–	> 1000 µg/mL	> 500 µM	199 µM	1.94	–	–	–
CCCc1ccc(/C=N/NC(=O)c2ccc(O)cc2O)cc1 [Compound 13, 2,4-dihydroxy-N-[(4-propylphenyl)methylidene]benzohydrazide]	> 1	> 1000 µg/mL	1000 µg/mL (≈ 3.35 mM)	1000 µg/mL (≈ 3.35 mM)	1000 µg/mL (≈ 3.35 mM)	1000 µg/mL (≈ 3.35 mM)	> 1	> 1000 µg/mL	1000 µg/mL (≈ 3.35 mM)	> 1000 µg/mL	> 1	1000 µg/mL (≈ 3.35 mM)	> 1	> 1000 µg/mL	1000 µg/mL (≈ 3.35 mM)	–	–	–	> 1	> 1000 µg/mL	MBC/MIC [3]: > 1; MBC [3]: > 1000 µg/mL; MBC/MIC [4]: > 1; MBC [4]: > 1000 µg/mL
O=C(N/N=C/c1ccccc1Cl)c1ccc(O)cc1O [Compound 22, N-[(2-chlorophenyl)methylidene]-2,4-dihydroxybenzohydrazide]	–	–	> 1000 µg/mL	> 1000 µg/mL	> 1000 µg/mL	> 1000 µg/mL	–	–	> 1000 µg/mL	–	–	> 1000 µg/mL	> 1	> 1000 µg/mL	1000 µg/mL (≈ 3.44 mM)	262 µM	111 µM	2.85	–	–	Selectivity Index [8]: 1.20
O=C(N/N=C/c1ccccc1Br)c1ccc(O)cc1O [Compound 23, N-[(2-bromophenyl)methylidene]-2,4-dihydroxybenzohydrazide]	–	–	> 1000 µg/mL	> 1000 µg/mL	> 1000 µg/mL	> 1000 µg/mL	–	–	> 1000 µg/mL	–	–	> 1000 µg/mL	> 2	> 1000 µg/mL	500 µg/mL (≈ 1.49 mM)	> 500 µM	157 µM	5.85 × 10^2	–	–	–
O=C(N/N=C/c1cccc([N+](=O)[O-])c1)c1ccc(O)cc1O [Compound 20, 2,4-dihydroxy-N-[(3-nitrophenyl)methylidene]benzohydrazide]	–	–	> 1000 µg/mL	> 1000 µg/mL	> 1000 µg/mL	> 1000 µg/mL	–	–	> 1000 µg/mL	–	–	> 1000 µg/mL	–	–	> 1000 µg/mL	> 500 µM	> 500 µM	–	–	–	–
O=C(N/N=C/c1cc(I)cc(I)c1O)c1ccc(O)cc1O [Compound 18, 2,4-dihydroxy-N-[(2-hydroxy-3,5-diiodophenyl)methylidene]benzohydrazide]	4	1.95 µg/mL (≈ 0.00372 mM)	0.48 µg/mL (≈ 0.000916 mM)	500 µg/mL (≈ 0.954 mM)	1000 µg/mL (≈ 1.91 mM)	1000 µg/mL (≈ 1.91 mM)	2	15.6 µg/mL (≈ 0.0298 mM)	7.81 µg/mL (≈ 0.0149 mM)	31.2 µg/mL (≈ 0.0596 mM)	8	3.91 µg/mL (≈ 0.00746 mM)	8	7.81 µg/mL (≈ 0.0149 mM)	0.98 µg/mL (≈ 0.00187 mM)	–	–	–	> 2	> 1000 µg/mL	MIC [1]: 0.48 µg/mL (≈ 0.000916 mM); MBC/MIC [3]: > 1; MBC [3]: > 1000 µg/mL; MBC/MIC [4]: > 1; MBC [4]: > 1000 µg/mL; MIC [7]: 0.98 µg/mL (≈ 0.00187 mM)
O=C(N/N=C/c1ccccc1[N+](=O)[O-])c1ccc(O)cc1O [Compound 19, 2,4-dihydroxy-N-[(2-nitrophenyl)methylidene]benzohydrazide]	> 1	> 1000 µg/mL	1000 µg/mL (≈ 3.32 mM)	1000 µg/mL (≈ 3.32 mM)	1000 µg/mL (≈ 3.32 mM)	1000 µg/mL (≈ 3.32 mM)	> 1	> 1000 µg/mL	1000 µg/mL (≈ 3.32 mM)	> 1000 µg/mL	> 2	500 µg/mL (≈ 1.66 mM)	> 2	> 1000 µg/mL	500 µg/mL (≈ 1.66 mM)	45.4 µM	130 µM	1.14 × 10^3	> 1	> 1000 µg/mL	MBC/MIC [3]: > 1; MBC [3]: > 1000 µg/mL; MBC/MIC [4]: > 1; MBC [4]: > 1000 µg/mL; Selectivity Index [8]: 3.29 × 10^3
